For 32 molecules, IC50 results are on record in patent US9000186B2, “Ring-fused heterocyclic derivative” (Kyowa Hakko Kirin Co., Ltd., priority 2011, dated 2015).

In the first experiment the target is T1, human Cav3.2 T-type Ca2+ channel (Homo sapiens, UniProt O95180).
T1 construct: expressed in transfected cells; host or cells: KJMGER8 cells (Namalwa cell-derived cell line)
T1 sequence (O95180 whole entry): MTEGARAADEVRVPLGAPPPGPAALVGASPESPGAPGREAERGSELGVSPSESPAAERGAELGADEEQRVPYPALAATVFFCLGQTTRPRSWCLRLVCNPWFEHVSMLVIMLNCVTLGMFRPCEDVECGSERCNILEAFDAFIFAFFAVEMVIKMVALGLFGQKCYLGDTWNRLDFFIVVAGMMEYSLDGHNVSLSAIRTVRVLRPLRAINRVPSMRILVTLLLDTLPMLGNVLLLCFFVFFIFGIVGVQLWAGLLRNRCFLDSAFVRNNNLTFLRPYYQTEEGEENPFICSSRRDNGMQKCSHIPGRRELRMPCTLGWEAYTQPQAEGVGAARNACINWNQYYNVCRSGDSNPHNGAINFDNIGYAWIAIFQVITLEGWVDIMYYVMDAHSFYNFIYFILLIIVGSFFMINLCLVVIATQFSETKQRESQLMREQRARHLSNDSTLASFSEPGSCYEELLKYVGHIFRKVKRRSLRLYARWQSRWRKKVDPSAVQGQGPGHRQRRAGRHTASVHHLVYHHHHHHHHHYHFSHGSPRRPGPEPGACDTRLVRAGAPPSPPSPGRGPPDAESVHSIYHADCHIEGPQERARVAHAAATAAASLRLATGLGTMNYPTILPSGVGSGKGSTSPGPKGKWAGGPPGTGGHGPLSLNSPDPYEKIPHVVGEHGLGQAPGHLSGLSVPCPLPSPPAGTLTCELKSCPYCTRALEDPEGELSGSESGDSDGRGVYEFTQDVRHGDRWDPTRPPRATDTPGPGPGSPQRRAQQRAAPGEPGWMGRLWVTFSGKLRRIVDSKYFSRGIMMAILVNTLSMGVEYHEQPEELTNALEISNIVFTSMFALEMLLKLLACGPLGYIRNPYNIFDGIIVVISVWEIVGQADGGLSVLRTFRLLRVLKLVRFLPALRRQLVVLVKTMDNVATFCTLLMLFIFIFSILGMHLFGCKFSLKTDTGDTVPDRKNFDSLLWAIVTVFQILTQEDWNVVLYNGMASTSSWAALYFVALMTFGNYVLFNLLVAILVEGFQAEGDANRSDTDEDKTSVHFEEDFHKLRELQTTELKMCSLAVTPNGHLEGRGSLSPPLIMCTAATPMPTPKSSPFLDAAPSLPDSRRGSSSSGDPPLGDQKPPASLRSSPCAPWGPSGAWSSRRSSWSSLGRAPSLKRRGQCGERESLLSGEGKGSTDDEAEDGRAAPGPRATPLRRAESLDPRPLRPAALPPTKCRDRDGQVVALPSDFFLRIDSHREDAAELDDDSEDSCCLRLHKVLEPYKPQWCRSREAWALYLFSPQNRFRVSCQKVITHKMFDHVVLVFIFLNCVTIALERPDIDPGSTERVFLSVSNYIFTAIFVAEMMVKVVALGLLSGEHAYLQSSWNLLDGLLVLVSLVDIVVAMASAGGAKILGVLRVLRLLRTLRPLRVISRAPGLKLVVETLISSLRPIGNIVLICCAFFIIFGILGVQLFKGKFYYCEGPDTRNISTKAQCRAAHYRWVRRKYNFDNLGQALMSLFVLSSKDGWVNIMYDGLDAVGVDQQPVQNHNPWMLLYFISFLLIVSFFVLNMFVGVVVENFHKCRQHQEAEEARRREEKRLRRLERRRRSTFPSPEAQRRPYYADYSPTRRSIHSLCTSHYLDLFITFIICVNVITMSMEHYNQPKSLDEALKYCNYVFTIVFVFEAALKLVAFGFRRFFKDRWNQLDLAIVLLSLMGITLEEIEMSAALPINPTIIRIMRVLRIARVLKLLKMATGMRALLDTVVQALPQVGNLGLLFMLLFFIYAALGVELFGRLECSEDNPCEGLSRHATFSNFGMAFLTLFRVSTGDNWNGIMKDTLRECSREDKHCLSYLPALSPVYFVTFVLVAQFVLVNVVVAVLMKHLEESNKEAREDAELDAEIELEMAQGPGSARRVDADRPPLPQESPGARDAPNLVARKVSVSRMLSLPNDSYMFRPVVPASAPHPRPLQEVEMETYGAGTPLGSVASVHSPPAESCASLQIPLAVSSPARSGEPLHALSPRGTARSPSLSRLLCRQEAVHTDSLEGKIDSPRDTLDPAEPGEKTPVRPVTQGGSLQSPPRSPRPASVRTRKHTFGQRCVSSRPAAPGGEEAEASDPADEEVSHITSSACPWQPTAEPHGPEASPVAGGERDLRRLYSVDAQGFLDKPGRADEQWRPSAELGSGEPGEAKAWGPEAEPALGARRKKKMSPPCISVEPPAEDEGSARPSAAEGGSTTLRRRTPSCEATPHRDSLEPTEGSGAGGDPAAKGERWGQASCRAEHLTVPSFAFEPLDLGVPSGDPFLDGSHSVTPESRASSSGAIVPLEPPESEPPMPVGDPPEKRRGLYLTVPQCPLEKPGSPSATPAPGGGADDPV
Briefly: Inhibitory effect for intracellular calcium response via Cav3.2 T-type Ca2+ channels (FLIPR Calcium 3 Assay Kit). Format: cell-based.
Settings: not given
In the case of `CCN(CC)C(=O)c1ccn2c(SC3CCCCC3)c(C(C)C)nc2c1` [Compound 12, 3-Cyclohexylthio-N,N-diethyl-2-isopropylimidazo[1,2-a]pyridine-7-carboxamide], the IC50 is < 100 nM.

`CC(C)(C)c1nc2cc(C(=O)NCc3ccccc3)ccn2c1CC1CCCCC1` [Compound 16, N-Benzyl-2-tert-butyl-3-cyclohexylmethylimidazo[1,2-a]pyridine-7-carboxamide]: the IC50 was < 100 nM.

Turning to `CC(C)(C)c1nc2cc(C(=O)NNC(=O)c3ccccc3)ccn2c1CC1CCCCC1` [Compound 17, N′-Benzoyl-2-tert-butyl-3-cyclohexylmethylimidazo[1,2-a]pyridine-7-carbohydrazide], the IC50 was < 100 nM.

As for `CC(C)CC(=O)N(C)c1ccn2c(CC3CCCCC3)c(C(C)(C)C)nc2c1` [Compound 19, N-(2-tert-Butyl-3-cyclohexylmethylimidazo[1,2-a]pyridin-7-yl)-N,3-dimethylbutanamide], the IC50 is < 100 nM.

As for `CN(C)S(=O)(=O)N(C)c1ccn2c(CC3CCCCC3)c(C(C)(C)C)nc2c1` [Compound 20, N-(2-tert-Butyl-3-cyclohexylmethylimidazo[1,2-a]pyridin-7-yl)-N,N′,N′-trimethylsulfamide], the IC50 is < 100 nM.

Regarding `CC(C)c1nc2cc(C(=O)Nc3nccs3)ccn2c1COC1CCCCC1` [Compound 25, 3-Cyclohexyloxymethyl-2-isopropyl-N-(thiazol-2-yl)imidazo[1,2-a]pyridine-7-carboxamide], the IC50 was < 100 nM.

In the case of `CC(C)c1nc2cc(C(=O)Nc3ccncc3)ccn2c1Cc1ccccc1` [Compound 37, 3-Benzyl-2-isopropyl-N-(pyridin-4-yl)imidazo[1,2-a]pyridine-7-carboxamide], the IC50 is < 100 nM.

`Cc1cn2c(S(=O)(=O)C3CCCCC3)c(C(C)C)nc2cc1C(=O)Nc1ccncc1` [Compound 39, 3-Cyclohexylsulfonyl-2-isopropyl-6-methyl-N-(pyridin-4-yl)imidazo[1,2-a]pyridine-7-carboxamide]: the IC50 was < 100 nM.

As to `CC(C)c1nc2cc(C(=O)Nc3ccccc3)ccn2c1SC1CCCCC1` [Compound 40, 3-Cyclohexylthio-2-isopropyl-N-phenylimidazo[1,2-a]pyridine-7-carboxamide], the half-maximal inhibitory concentration (IC50) is < 100 nM.

Take `Cc1c(C(=O)Nc2ccncc2)ccn2c(CC3CCCCC3)c(C(C)(C)C)nc12` [Compound 42, 2-tert-Butyl-3-cyclohexylmethyl-8-methyl-N-(pyridin-4-yl)imidazo[1,2-a]pyridine-7-carboxamide]: the IC50 was < 100 nM.

With `CC1(C)COCCC1NC(=O)c1ccn2c(CC3CCC(F)(F)CC3)c(C(F)(F)F)nc2c1` (centres unmarked) [Compound 53, 3-(4,4-Difluorocyclohexylmethyl)-N-(3,3-dimethyltetrahydro-2H-pyran-4-yl)-2-trifluoromethylimidazo[1,2-a]pyridine-7-carboxamide], the IC50 is < 100 nM.

With `COCC1(CNC(=O)c2ccn3c(CC4CCC(F)(F)CC4)c(C(F)(F)F)nc3c2)CCOCC1` [Compound 59, 3-(4,4-Difluorocyclohexylmethyl)-N-[{4-(methoxymethyl)tetrahydro-2H-pyran-4-yl}methyl]-2-trifluoromethylimidazo[1,2-a]pyridine-7-carboxamide], the IC50 is < 100 nM.

With `O=C(NC1CCOCC1)c1ccn2c(CC3CCC(F)(F)CC3)c(C3(C(F)(F)F)CC3)nc2c1` [Compound 65, 3-(4,4-Difluorocyclohexylmethyl)-N-(tetrahydro-2H-pyran-4-yl)-2-(1-trifluoromethylcyclopropyl)imidazo[1,2-a]pyridine-7-carboxamide], the IC50 was < 100 nM.

For `Cc1cc(C(=O)Nc2ccccc2N)cc2nc(C(F)(F)F)c(CC3CCC(F)(F)CC3)n12` [Compound 68, N-(2-Aminophenyl)-3-(4,4-difluorocyclohexylmethyl)-5-methyl-2-trifluoromethylimidazo[1,2-a]pyridine-7-carboxamide], the IC50 was < 100 nM.

As to `Cc1cc(C(=O)NC2CCC(=O)CC2)cc2nc(C(F)(F)F)c(CC3CCC(F)(F)CC3)n12` [Compound 71, 3-(4,4-Difluorocyclohexylmethyl)-5-methyl-N-(4-oxocyclohexyl)-2-trifluoromethylimidazo[1,2-a]pyridine-7-carboxamide], the half-maximal inhibitory concentration (IC50) was < 100 nM.

As to `Cc1cc(C(=O)NC2CCSCC2)cc2nc(C(F)(F)F)c(CC3CCC(F)(F)CC3)n12` [Compound 74, 3-(4,4-Difluorocyclohexylmethyl)-5-methyl-N-(tetrahydro-2H-thiopyran-4-yl)-2-trifluoromethylimidazo[1,2-a]pyridine-7-carboxamide], the IC50 was < 100 nM.

`Cc1cc(C(=O)NCC2(CO)CCOCC2)cc2nc(C(F)(F)F)c(CC3CCC(F)(F)CC3)n12` [Compound 85, 3-(4,4-Difluorocyclohexylmethyl)-N-[{4-(hydroxymethyl)tetrahydro-2H-pyran-4-yl}methyl]-5-methyl-2-trifluoromethylimidazo[1,2-a]pyridine-7-carboxamide]: the IC50 was < 100 nM.

With `Cc1cc(C(=O)NCC2(F)CCOCC2)cc2nc(C(F)(F)F)c(CC3CCC(F)(F)CC3)n12` [Compound 87, 3-(4,4-Difluorocyclohexylmethyl)-N-{(4-fluorotetrahydro-2H-pyran-4-yl)methyl}-5-methyl-2-trifluoromethylimidazo[1,2-a]pyridine-7-carboxamide], the IC50 is < 100 nM.

As to `Cc1cc(C(=O)NOC2CCOCC2)cc2nc(C(F)(F)F)c(CC3CCC(F)(F)CC3)n12` [Compound 90, 3-(4,4-Difluorocyclohexylmethyl)-5-methyl-N-(tetrahydro-2H-pyran-4-yloxy)-2-trifluoromethylimidazo[1,2-a]pyridine-7-carboxamide], the IC50 was < 100 nM.

As for `Cc1cc(C(=O)N(C)C2CCOCC2)cc2nc(C(F)(F)F)c(CC3CCC(F)(F)CC3)n12` [Compound 91, 3-(4,4-Difluorocyclohexylmethyl)-N,5-dimethyl-N-(tetrahydro-2H-pyran-4-yl)-2-trifluoromethylimidazo[1,2-a]pyridine-7-carboxamide], the IC50 is < 100 nM.

For the molecule `Cc1cc(C(=O)NCC2(C)COC2)cc2nc(C(F)(F)F)c(CC3CCC(F)(F)CC3)n12` [Compound 95, 3-(4,4-Difluorocyclohexylmethyl)-5-methyl-N-{(3-methyloxetan-3-yl)methyl}-2-trifluoromethylimidazo[1,2-a]pyridine-7-carboxamide], the IC50 is < 100 nM.

As to `COC(C)(C)c1nc2cc(C(=O)NC3CCOCC3)cc(C)n2c1CC1CCC(F)(F)CC1` [Compound 97, 3-(4,4-Difluorocyclohexylmethyl)-2-(2-methoxypropan-2-yl)-5-methyl-N-(tetrahydro-2H-pyran-4-yl)imidazo[1,2-a]pyridine-7-carboxamide], the IC50 was < 100 nM.

As to `O=C(Nc1ccccc1)c1cc(Cl)n2c(CC3CCC(F)(F)CC3)c(C(F)(F)F)nc2c1` [Compound 102, 5-Chloro-3-(4,4-difluorocyclohexylmethyl)-N-phenyl-2-trifluoromethylimidazo[1,2-a]pyridine-7-carboxamide], the IC50 is < 100 nM.

As for `O=C(NCC1CCOC1)c1cc(Cl)n2c(CC3CCC(F)(F)CC3)c(C(F)(F)F)nc2c1` (centres unmarked) [Compound 106, 5-Chloro-3-(4,4-difluorocyclohexylmethyl)-N-{(tetrahydrofuran-3-yl)methyl}-2-trifluoromethylimidazo[1,2-a]pyridine-7-carboxamide], the IC50 is < 100 nM.

The same experiment, now with this note: human Cav3.2-expressing KJMGER8 cells (Namalwa-derived); calcium response induced by 5 mmol/L CaCl2; normalised to 3 μmol/L mibefradil; read-out: IC50 for the human Cav3.2 T-type Ca2+ current.
Consider `CC(C)c1nc2cc(NC(=O)c3ccccc3)ccn2c1COC1CCCCC1` [Compound 28, N-(3-Cyclohexyloxymethyl-2-isopropylimidazo[1,2-a]pyridin-7-yl)benzamide], for which the IC50 is < 100 nM.

Regarding `CC(C)c1nc2cc(-c3nc4ccccc4[nH]3)ccn2c1COC1CCCCC1` [Compound 33, 2-(3-Cyclohexyloxymethyl-2-isopropylimidazo[1,2-a]pyridin-7-yl)-1H-benzimidazole], the 50% inhibitory concentration (IC50) was < 100 nM.

Take `CS(=O)(=O)c1cccc(NC(=O)c2ccn3c(CC4CCC(F)(F)CC4)c(C(F)(F)F)nc3c2)c1` [Compound 48, 3-(4,4-Difluorocyclohexylmethyl)-N-(3-methanesulfonylphenyl)-2-trifluoromethylimidazo[1,2-a]pyridine-7-carboxamide]: the IC50 is < 100 nM.

In the case of `CCC1(CNC(=O)c2ccn3c(CC4CCC(F)(F)CC4)c(C(F)(F)F)nc3c2)COC1` [Compound 56, 3-(4,4-Difluorocyclohexylmethyl)-N-{(3-ethyloxetan-3-yl)methyl}-2-trifluoromethylimidazo[1,2-a]pyridine-7-carboxamide], the IC50 was < 100 nM.

In the case of `CC1(CNC(=O)c2ccn3c(CC4CCC(F)(F)CC4)c(C(F)(F)F)nc3c2)CCCO1` (centres unmarked) [Compound 57, 3-(4,4-Difluorocyclohexylmethyl)-N-{(2-methyltetrahydrofuran-2-yl)methyl}-2-trifluoromethylimidazo[1,2-a]pyridine-7-carboxamide], the IC50 is < 100 nM.

`COC1(CNC(=O)c2cc(C)n3c(CC4CCC(F)(F)CC4)c(C(F)(F)F)nc3c2)CCOCC1` [Compound 86, 3-(4,4-Difluorocyclohexylmethyl)-N-{(4-methoxytetrahydro-2H-pyran-4-yl)methyl}-5-methyl-2-trifluoromethylimidazo[1,2-a]pyridine-7-carboxamide]: the IC50 is < 100 nM.

On to `Cc1cc(C(=O)NCC2COCCOC2)cc2nc(C(F)(F)F)c(CC3CCC(F)(F)CC3)n12` [Compound 93, N-{(1,4-Dioxepan-6-yl)methyl}-3-(4,4-difluorocyclohexylmethyl)-5-methyl-2-trifluoromethylimidazo[1,2-a]pyridine-7-carboxamide], for which the IC50 is < 100 nM.

Regarding `O=C(Nc1ccccc1)c1cc2nc(C(F)(F)F)c(CC3CCC(F)(F)CC3)n2cc1Cl` [Compound 107, 6-Chloro-3-(4,4-difluorocyclohexylmethyl)-N-phenyl-2-trifluoromethylimidazo[1,2-a]pyridine-7-carboxamide], the IC50 was < 100 nM.
